Among the data in patent publication US20230091047A1 (priority 2019, published 2023) are EC50 and CC50 values, retold here.

Where two headings read alike, the source gives them in different places.

Data set [1] has as its system HBV (HepG2.117 cell line, inducibly HBV producing). Put plainly: Anti-HBV activity: intracellular HBV DNA by real-time PCR in HepG2.117 cells after 3 days of treatment. Type of data set: cell-based, hepatitis B virus. The method in brief:
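First, HBV replication is induced in HepG2.117 cells by doxycycline absence. Next, serially diluted compound is added for 3 days. Finally, intracellular HBV DNA is quantified by HBV-specific real-time PCR.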
(In general: Quantitative PCR measures a nucleic acid by following its amplification.)

Another data set can be described thus: in vitro. The class given is cell-based. As to conditions: human, HepG2 or HepG2.117 cells, ATPlite, mean value. The method in brief:
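Luminescent ATP quantitation served as the viability endpoint following a 3- or 4-day incubation with test compounds.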
For orientation: ATP-based viability assays read luminescence as a measure of living cells.

Where [2] appears, read: Hepatitis B virus, HepG2.117, 72 h, HepG2.117 cells, 3 days of treatment, intracellular HBV DNA by real-time PCR; mean value; read-out: EC50 (μM, mean value).
[3] abbreviates: 3-days incubation (unmarked values).
Setting [4] is: Hepatitis B virus, HepG2.117, 72 h, HepG2.117 cells, intracellular HBV DNA by real-time PCR, 3 days of treatment, mean value; read-out: EC50 (μM, mean value).
Setting [5] is: 3-days incubation (not marked with *).

What is called EC50 is the concentration needed to bring the measured effect to its halfway point. One may read the CC50 as the concentration giving 50% cytotoxicity. For the compound `COc1ccccc1-n1c(N[C@@H](C)C(F)(F)F)nc2c(c1=O)CCN(C(=O)c1ccc(Cl)c(Cl)c1)C2` [Compound C86, 7-(3,4-dichlorobenzoyl)-3-(2-methoxyphenyl)-2-{[(2S)-1,1,1-trifluoropropan-2-yl]amino}-5,6,7,8-tetrahydropyrido[3,4-d]pyrimidin-4(3H)-one], the EC50 in data set [1] (setting [2]) came out at 1.44 µM. In “in vitro” (setting [3]), this compound displayed a CC50 at 3 days of 25.2 µM.
With `CNC(=O)c1ccc(-n2c(NC(C)C)nc3c(c2=O)C[C@@H](C)N(C(=O)c2ccc(Br)c(F)c2OC)C3)cc1` [Compound C512], the EC50 in data set [1] (setting [4]) was determined as 1.11 µM. In “in vitro” (setting [5]), the CC50 at 3 days was more than 50 µM.
Regarding `COc1ccc(CNc2nc3c(c(=O)n2-c2ccc(N4CCOCC4C(=O)O)cc2)CCN(C(=O)c2ccc(Cl)c(Cl)c2)C3)cc1` (stereo not drawn) [Compound C159, 4-{4-[7-(3,4-dichlorobenzoyl)-2-{[(4-methoxyphenyl)methyl]amino}-4-oxo-5,6,7,8-tetrahydropyrido[3,4-d]pyrimidin-3(4H)-yl]phenyl}morpholine-3-carboxylic acid], the EC50 in data set [1] (setting [2]) stood at 23.1 µM. Further, the CC50 at 3 days in the data set “in vitro” (setting [3]) is more than 50 µM.
For the compound `CNS(=O)(=O)c1ccc(-n2c(NC(C)C)nc3c(c2=O)C[C@@H](C)N(C(=O)c2ccc(Cl)c(Cl)c2)C3)cc1` [Compound C339, 4-[(6R)-7-(3,4-dichlorobenzoyl)-6-methyl-4-oxo-2-[(propan-2-yl)amino]-5,6,7,8-tetrahydropyrido[3,4-d]pyrimidin-3(4H)-yl]-N-methylbenzene-1-sulfonamide], the EC50 in data set [1] (setting [2]) turned out to be 0.57 µM. In addition, the CC50 at 3 days in the data set “in vitro” (setting [3]) was more than 50 µM.
As to `CNC(=O)c1ccc(-n2c(N[C@@H]3C[C@H]3c3ccc(OC)cc3)nc3c(c2=O)C[C@@H](C)N(C(=O)c2ccc(Cl)c(Cl)c2)C3)cc1` (single isomer, unassigned) [Compound C452a], in data set [1] (setting [4]), the EC50 stood at 1.44 µM. In the data set “in vitro” (setting [5]), this compound gave a CC50 at 3 days of more than 25 µM.
The like results for `CNC(=O)c1ccc(-n2c(N[C@H](C)c3cccc(C(F)F)c3)nc3c(c2=O)C[C@@H](C)N(C(=O)c2ccc(Cl)c(Cl)c2)C3)cc1` (single isomer, unassigned) [Compound C660a] were, in that order, 1.3 µM and more than 50 µM.
For the compound `CNC(=O)c1ccc(-n2c(NCC3CC3C)nc3c(c2=O)C[C@@H](C)N(C(=O)c2ccc(Cl)c(Cl)c2)C3)cc1` (stereo partly drawn) [Compound C547], in data set [1] (setting [4]), the EC50 came out at 0.97 µM. The midpoint of cytotoxicity in “in vitro” (setting [5]), the CC50 at 3 days, lay at 47.2 µM.
For the compound `COc1ccc(CNc2nc3c(c(=O)n2C)CCN(C(=O)c2ccc(Cl)c(Cl)c2)C3)cc1` [Compound C52, 7-(3,4-dichlorobenzoyl)-2-{[(4-methoxyphenyl)methyl]amino}-3-methyl-5,6,7,8-tetrahydropyrido[3,4-d]pyrimidin-4(3H)-one], the EC50 in data set [1] (setting [2]) was found to be 5.1 µM. In addition, the CC50 at 3 days in “in vitro” (setting [3]) is more than 50 µM.
As for `CNC(=O)c1ccc(-n2c(N[C@H](C)c3ccc4[nH]ccc4c3)nc3c(c2=O)C[C@@H](C)N(C(=O)c2ccc(Cl)c(Cl)c2)C3)cc1` (single isomer, unassigned) [Compound C449a], the EC50 in data set [1] (setting [4]) stood at 0.04 µM. The compound also showed a CC50 at 3 days in the data set “in vitro” (setting [5]) of more than 50 µM.
As for `CNC(=O)c1ccc(-n2c(N[C@@H](C)C3CC3)nc3c(c2=O)C[C@@H](C)N(C(=O)c2ccc(Cl)c(C(F)(F)F)c2)C3)c(Cl)c1` (single isomer, unassigned) [Compound C676a], in data set [1] (setting [4]), the EC50 amounted to 0.03 µM. The compound further gave a CC50 at 3 days in “in vitro” (setting [5]) of more than 50 µM.
In the case of `COc1ccccc1-n1c(NC2CCCC2)nc2c(c1=O)CCN(C(=O)c1ccc(Cl)c(Cl)c1)C2` [Compound C45, 2-(cyclopentylamino)-7-(3,4-dichlorobenzoyl)-3-(2-methoxyphenyl)-5,6,7,8-tetrahydropyrido[3,4-d]pyrimidin-4(3H)-one], in data set [1] (setting [2]), the EC50 was determined as 6.62 µM. Also, the midpoint of cytotoxicity in the data set “in vitro” (setting [3]), the CC50 at 3 days, lay at 27.2 µM.
The like results for `CNC(=O)c1ccc(-n2c(N[C@H](c3ccccc3)C3CC3)nc3c(c2=O)C[C@@H](C)N(C(=O)c2ccc(Cl)c(Cl)c2)C3)cc1` (single isomer, unassigned) [Compound C343, 4-[(6R)-2-{[(*S)-cycopropyl(phenyl)methyl]amino}-7-(3,4-dichlorobenzoyl)-6-methyl-4-oxo-5,6,7,8-tetrahydropyrido[3,4-d]pyrimidin-3(4H)-yl]-N-methylbenzamide] were, in that order, 0.19 µM and 13.7 µM.
With `COc1ccc(CNc2nc3c(c(=O)n2-c2ccn[nH]2)CCN(C(=O)c2ccc(Cl)c(Cl)c2)C3)cc1` [Compound C107, 7-(3,4-dichlorobenzoyl)-2-{[(4-methoxyphenyl)methyl]amino}-3-(1H-pyrazol-5-yl)-5,6,7,8-tetrahydropyrido[3,4-d]pyrimidin-4(3H)-one], the EC50 in data set [1] (setting [2]) was found to be 1.78 µM. Further, the CC50 at 3 days in “in vitro” (setting [3]) is 22.6 µM.
In the case of `CNC(=O)c1ccc(-n2c(N[C@H](C)c3cnnn3C)nc3c(c2=O)C[C@@H](C)N(C(=O)c2ccc(Cl)c(Cl)c2)C3)cc1` [Compound C517], the EC50 in data set [1] (setting [4]) was more than 25 µM. In addition, in the data set “in vitro” (setting [5]), the CC50 at 3 days is more than 50 µM.
With `CC(C)Nc1nc2c(c(=O)n1-c1ccc(S(C)(=O)=O)cc1)C(C)CN(C(=O)c1ccc(Cl)c(Cl)c1)C2` (stereo not drawn) [Compound C154, 7-(3,4-dichlorobenzoyl)-3-[4-(methanesulfonyl)phenyl]-5-methyl-2-[(propan-2-yl)amino]-5,6,7,8-tetrahydropyrido[3,4-d]pyrimidin-4(3H)-one], in data set [1] (setting [2]), the EC50 came out at 0.52 µM. For the same compound, the CC50 at 3 days in the data set “in vitro” (setting [3]) is more than 50 µM.
For `CCN(CC)c1nc2c(c(=O)n1-c1ccc(C(=O)NC)nc1)C[C@@H](C)N(C(=O)c1ccc(Cl)c(Cl)c1)C2` [Compound C625], the EC50 in data set [1] (setting [4]) worked out at 0.18 µM. In addition, the CC50 at 3 days in “in vitro” (setting [5]) was more than 50 µM.
With `CNC(=O)c1ccc(-n2c(N[C@H](C)CC(=O)O)nc3c(c2=O)C[C@@H](C)N(C(=O)c2ccc(Cl)c(Cl)c2)C3)cc1` [Compound C336, (3R)-3-({(6R)-7-(3,4-dichlorobenzoyl)-6-methyl-3-[4-(methylcarbamoyl)phenyl]-4-oxo-3,4,5,6,7,8-hexahydropyrido[3,4-d]pyrimidin-2-yl}amino)butanoic acid], the EC50 in data set [1] (setting [2]) is 7.66 µM. Besides, in “in vitro” (setting [3]), the half-maximal cytotoxic concentration (CC50) at 3 days was more than 50 µM.
Regarding `CNC(=O)c1ccc(-n2c(NCc3n[nH]c(C)n3)nc3c(c2=O)C[C@@H](C)N(C(=O)c2ccc(Cl)c(Cl)c2)C3)cc1` [Compound C541], the EC50 in data set [1] (setting [4]) is more than 25 µM. This compound also showed a CC50 at 3 days in “in vitro” (setting [5]) of more than 50 µM.
Turning to `CC(C)Nc1nc2c(c(=O)n1-c1ccc(-c3cscn3)cc1)CCN(C(=O)c1ccc(Cl)c(Cl)c1)C2` [Compound C170, 7-(3,4-dichlorobenzoyl)-2-[(propan-2-yl)amino]-3-[4-(1,3-thiazol-4-yl)phenyl]-5,6,7,8-tetrahydropyrido[3,4-d]pyrimidin-4(3H)-one], the 50% effective concentration (EC50) in data set [1] (setting [2]) turned out to be 0.53 µM. Further, the CC50 at 3 days in “in vitro” (setting [3]) is more than 50 µM.
With `CNC(=O)c1ccc(-n2c(NC(C)c3ncn(C)n3)nc3c(c2=O)C[C@@H](C)N(C(=O)c2ccc(Cl)c(Cl)c2)C3)cc1` (stereo partly drawn) [Compound C484], in data set [1] (setting [4]), the EC50 was 3.09 µM. In the data set “in vitro” (setting [5]), the 50% cytotoxic concentration (CC50) at 3 days was more than 50 µM.
Turning to `Cc1nc(-c2ccc(-n3c(NC(C)C)nc4c(c3=O)C[C@@H](C)N(C(=O)c3ccc(Cl)c(Cl)c3)C4)c(Cl)c2)c[nH]1` [Compound C324, (6R)-3-[2-chloro-4-(2-methyl-1H-imidazol-4-yl)phenyl]-7-(3,4-dichlorobenzoyl)-6-methyl-2-[(propan-2-yl)amino]-5,6,7,8-tetrahydropyrido[3,4-d]pyrimidin-4(3H)-one], the EC50 in data set [1] (setting [2]) stood at 0.41 µM. Besides, in “in vitro” (setting [3]), the CC50 at 3 days is more than 50 µM.
